One compound from US10420734B2, “Method of treating cancer using selective estrogen receptor modulators” (Duke University, priority 2014, dated 2019) can be followed below.

For assay [1], the target named is T1, ESR1 (Homo sapiens, UniProt P03372).
T1 sequence (P03372 1-595): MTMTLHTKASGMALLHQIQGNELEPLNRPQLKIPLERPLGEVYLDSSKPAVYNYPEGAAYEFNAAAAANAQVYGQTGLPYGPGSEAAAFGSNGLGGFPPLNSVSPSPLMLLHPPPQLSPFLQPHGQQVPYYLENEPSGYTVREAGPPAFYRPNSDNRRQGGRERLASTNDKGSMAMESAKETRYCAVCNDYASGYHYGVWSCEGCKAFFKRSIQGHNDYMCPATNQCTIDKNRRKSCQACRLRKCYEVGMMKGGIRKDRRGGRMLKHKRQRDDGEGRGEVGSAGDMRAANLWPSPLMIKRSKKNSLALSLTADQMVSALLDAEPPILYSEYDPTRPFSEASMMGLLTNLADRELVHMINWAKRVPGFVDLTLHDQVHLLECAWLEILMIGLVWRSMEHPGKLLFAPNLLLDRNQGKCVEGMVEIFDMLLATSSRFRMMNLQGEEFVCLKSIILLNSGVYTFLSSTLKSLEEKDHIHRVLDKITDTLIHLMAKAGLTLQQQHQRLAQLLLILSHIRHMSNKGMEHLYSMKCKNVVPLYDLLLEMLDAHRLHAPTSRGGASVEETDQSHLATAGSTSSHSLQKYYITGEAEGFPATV
Kind of assay: ESR1 expression in LTED MCF7 cells (immunoblot). Particulars: 24 hours, SERDs 10^-6 M. The assay is classed as cell-based. The procedure: MCF7 and SKBR3 cell lines were maintained in DMEM/F12 or RPMI media (Invitrogen), respectively, supplemented with 8% fetal bovine serum (FBS, Gemini), non-essential amino acids (Invitrogen), and sodium pyruvate (Invitrogen). Unless otherwise indicated, cells were plated for experiments in media lacking phenol red and supplemented with 8% charcoal stripped FBS (CFS, Gemini). LTED MCF7 cells were maintained and plated for experiments in phenol red free DMEM/F12 media supplemented with 8% CFS that had been charcoal stripped twice. 48 hours after plating, cells were treated with ESR1 ligands as indicated, and were harvested for immunoblot or real time quantitative PCR analysis 24 hours after treatment.
Expression of ESR1 and loading control cytokeratin 18 (CK18—FIG. 7A) in whole cell extracts were detected by immunoblot (top). ESR1 levels relative to CK18 were quantitated by densitometry using Adobe Photoshop (bottom). […] ESR1 expression was detected as in FIG. 6A. For FIGS. 6C-6D, LTED MCF7 cells were plated in phenol red free media supplemented with FBS that was stripped of growth factors twice using charcoal. For FIG. 6C, after 48 hours, cells were treated for 24 hours with E2 (10^−7 M) or SERDs (10^−6 M) and ESR1 was analyzed as in FIG. 6A.
In general terms: In western blotting, separated proteins are transferred to a membrane and probed.

Assay [2] concerns ESR1 target genes. Kind of assay: ESR1 target gene expression profile in MCF7 cells. The assay is classed as cell-based. Particulars: 24 hours. On the procedure: A recent extensive microarray analysis has identified “sentinel” subsets of ER-responsive genes that can differentiate between ER agonists, SERMs and SERDs. […] MCF7 breast cancer cells were treated 24 hours with RAD1901 (0-1 μM) in the presence or absence of 17β-estradiol (1 nM). RNA isolation and the analysis of the expression of target genes Anterior gradient protein 2 (AGR2) and KCNK6 was conducted as in Example 3.
The expression of ESR1 target genes responsive to (FIG. 10A) agonists, (FIG. 10B) primarily SERMs, or (FIG. 10C) SERMs and agonists was analyzed as in FIG. 5. […] Significant target gene regulation (*p<0.05) as compared to the vehicle control was detected by 2 way ANOVA followed by Fisher's LSD (Graphpad Prism 6). […] Interaction of ESR1 with the Gal4DBD peptide constructs was detected through activation of a Gal4-responsive luciferase reporter construct and was normalized to detected β-galactosidase activity expressed in a constitutive manner using a second vector. Normalized response was expressed as fold increase over the detected level of interaction between Gal4DBD alone and ESR1-VP16 in the absence of ligand (Veh). For FIG. 10E, the effect of SERMs and SERDs (10^−6 M) on the proliferation of MCF7 cells in response to E2 (10^−9 M) or insulin (2×10^−9 M) was evaluated as in FIG. 5. […]

Turning to `CCNCCc1ccc(CN(CC)c2cc(OC)ccc2[C@@H]2CCc3cc(O)ccc3C2)cc1` [RAD1901, (R)-6-{2-{ethyl[4-(2-ethylaminoethyl)benzyl]amino}-4-methoxyphenyl}-5,6,7,8-tetrahydronaphthalen-2-ol], in assay [1], the ESR1 expression levels entry is reported as “downregulated ESR1 expression”. Moreover, the “regulation of ER transactivation of target genes AGR2 and KCNK6” value in assay [2] (RAD1901 0-1 μM, presence or absence of 17β-estradiol 1 nM) was “dose dependent agonist/antagonist regulation”. The “expression pattern of ESR1 target genes (agonist-, SERM-, SERM/agonist-responsive)” value in assay [2] (RAD1901 10^-9-10^-6 M) is listed as “biphasic response”.
